{"source": "patent US11672786B2", "about": "“Methods of treating diseases associated with repeat instability” (The Hospital for Sick Children, priority 2016, dated 2023)", "key": {"[1]": {"tested_on": "long (CTG)20 slip-outs from (CAG)30●(CTG)50", "assay": "band-shift NA-DNA binding, long (CTG)20 slip-out", "design": "species or system human", "conditions": "NA 0.15-50 μM, 4% polyacrylamide gel", "text": "FIG. 2 are the results of experiments showing that NA binds to long CAG slip-outs. […] The (CAG)n DNA sequence (left) can fold into an hairpin structure involving mismatched A-A pair flanking C-G base pairs (middle). NA molecules can intercalate into the DNA helix, with the 2-amino-1,8-naphthyridine moiety (in red) hydrogen bonding to guanine and 8-azaquinolone moiety (in blue) hydrogen bonding to adenine. […] Long slip-outs extruded as a single slip-out from a fully base-paired backbone of (CTG)n●(CAG)n, as described (Pearson et al., 2002, Nuc. Acids Res., 30:4534-47). DNAs were mixed with increasing concentrations of NA (0.15 μM, 0.75 μM, 7.5 μM and 50 μM) and resolved on 4% polyacrylamide gels. All lanes are from the same gel, and they were separated for clarity. NA-DNA complexes are shown by brackets, free DNA is indicated by arrowheads. […] The relative migration was measured for the linear and the three slip-outs substrates as the ratio of the migration distance of each NA-DNA complex to the migration distance of the free DNA. The migration distance was measured from the well to a consistent center point of each band. […]"}, "single CAG slip-out": {"tested_on": "single CAG slip-out", "assay": "in vitro repair assay by HeLa cell extracts, single repeat slip-out", "format": "biochemical, human", "text": "Panel A of […] is a schematic of the in vitro repair assay. Starting DNAs and repair products released the repeat-containing fragment, which is resolved on PAGE and assessed on a molar level by Southern blotting and densitometry. Repair of different DNA substrates containing a long (CAG)20 slip-out (Panel B of FIG. 3) long (CTG)20 slip-out (Panel C of FIG. 3), a single CAG slip-out (Panel D of FIG. 3) or a single G-T mismatch (Panel E of FIG. 3), in the absence or in the presence of NA. Slipped-DNA substrates were prepared from hybrids of (CAG)50●(CTG)30, (CAG)30●(CTG)50 or of (CAG)50●(CTG)49. Repair of the G-T mismatch reconstitutes a HindIII restriction site, as shown schematically. Graphs show percentage repair efficiencies to repaired product relative to all repeat-containing fragments in the lane, values are normalized to the NA-free efficiency. […]\nTo determine how the binding of NA to slipped DNA structures affects repair, a series of circular slipped heteroduplex substrates was made with an excess of repeats with a nick located either 5′ or 3′ of the slip-out (FIG. 3). […] All these substrates were processed in […] by HeLa extracts and then were assessed for repair. Repair products were analyzed by Southern blotting, probed for the repeat-containing fragment, and compared with starting material, which permitted quantitative assessment of repair efficiency at a molar level. […]"}, "[2]": {"tested_on": "plasmids pDM79EF, pDM79HF, pKN16 with SV40 origin of replication", "assay": "in vitro SV40 replication assay by HeLa cell extracts", "format": "biochemical, human", "conditions": "NA 7.5 μM or 15 μM", "method": "Three circular plasmids containing the SV40 origin of replication, and an expanded (CAG)79●(CTG)79 repeat tract (pDM79EF and pDM79HF) or no repeats (pKN16), were replicated in vitro by human HeLa cell extracts and added recombinant SV40 T-Ag, without or with NA (7.5 μM or 15 μM) treatment. […] Replication products were purified and linearized with BanHI. An equal portion of the reaction material was also digested with BamHI and DpnI; DpnI digests un-replicated and partially-replicated material, as shown in the schematic (top figure).\nThese templates containing repeats (pDM79EF and pDM79HF) and another substrate with SV40-ori and no-repeats (pKN16) were replicated in vitro by HeLa cell extract adding [α-^32P]dCTP and T-Antigen, as described in detail in Panigrahi et al. (2002, J. Biol. Chem., 277:13926-34) and Cleary et al. (2002, Nat. Genet., 31(1):37-46). Replication reaction was performed without or with NA (7.5 μM and 15 μM). Radioactive replication products were purified, linearized with BamHI, and treated with DpnI (for details see FIG. 9). […] Equal quantities of reaction products were resolved by electrophoresis on a 15-cm 1% agarose gel. The gel was run for 16 h at 4 V/cm in TBE buffer, dried, and exposed to Kodak film."}}}
{"substance": "naphthyridine-azaquinolone", "values": [{"measurement": "NA binding (band-shift)", "setting": "[1]", "value": "not bound"}, {"measurement": "effect on repair of a single repeat CAG or CTG slip-out", "setting": "single CAG slip-out", "value": "unaffected"}, {"measurement": "effect on replication efficiency and replication fork progression", "setting": "[2]", "value": "does not affect replication efficiency or replication fork progression"}]}
